Test system: 624824-186-R-J2-PDC multicell spheroids, viability
Assay: Anticancer human tumor 624824-186-R-J2-PDC patient-derived colon adenocarcinoma cell line growth inhibition [PI3K]
Conditions: for IC50: curve of first compound; for viability, T/C: stronger effect = lower value; active = viability on the fitted dose curve at most 10% of control; inactive = the rest
Summary of the method: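 We assembled tumor spheroids that included a stromal compartment of HUVEC and MSCs, then exposed them to targeted agents alone and together with PI3K pathway inhibitors. Concentration series descended by half-log from clinically achievable Cmax levels. Viability served as the endpoint.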

[1] = second compound 0.00316 µM, first compound 0.0316 µM
[2] = second compound 0.00316 µM, first compound 0.1 µM
[3] = second compound 0.01 µM, first compound 0.0316 µM
[4] = second compound 0.01 µM, first compound 0.1 µM
[5] = second compound 0.0316 µM, first compound 0.0316 µM
[6] = second compound 0.0316 µM, first compound 0.1 µM
[7] = second compound 0.1 µM, first compound 0.0316 µM
[8] = second compound 0.1 µM, first compound 0.1 µM
[9] = second compound 0.316 µM, first compound 0.0316 µM
[10] = second compound 0.316 µM, first compound 0.1 µM
[11] = second compound 1 µM, first compound 0.0316 µM
[12] = second compound 1 µM, first compound 0.1 µM
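Note: spheroids exposed to agents for 7 days before viability read.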
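Throughout, for viability, T/C: 100% = DMSO vehicle treated spheroids.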

CC(=O)c1c(C)c2cnc(Nc3ccc(N4CCNCC4)cn3)nc2n(C2CCCC2)c1=O + COc1c(OCCCN2CCOCC2)ccc2c3n(c(=NC(=O)c4cnc(N)nc4)nc12)CCN3
inactive: viability, T/C (second compound 0.00316 µM, first compound 0.000316 µM) 95.5% | viability, T/C (second compound 0.00316 µM, first compound 0.001 µM) 94.7% | viability, T/C (second compound 0.00316 µM, first compound 0.00316 µM) 90.6% | viability, T/C (second compound 0.00316 µM, first compound 0.01 µM) 98.7% | viability, T/C [1] 105% | viability, T/C [2] 84% | viability, T/C (second compound 0.01 µM, first compound 0.000316 µM) 104% | viability, T/C (second compound 0.01 µM, first compound 0.001 µM) 90% | viability, T/C (second compound 0.01 µM, first compound 0.00316 µM) 86.7% | viability, T/C (second compound 0.01 µM, first compound 0.01 µM) 94.3% | viability, T/C [3] 97.6% | viability, T/C [4] 96.5% | viability, T/C (second compound 0.0316 µM, first compound 0.000316 µM) 82.7% | viability, T/C (second compound 0.0316 µM, first compound 0.001 µM) 94.4% | viability, T/C (second compound 0.0316 µM, first compound 0.00316 µM) 91.4% | viability, T/C (second compound 0.0316 µM, first compound 0.01 µM) 86.7% | viability, T/C [5] 89% | viability, T/C [6] 69.2% | viability, T/C (second compound 0.1 µM, first compound 0.000316 µM) 65.9% | viability, T/C (second compound 0.1 µM, first compound 0.001 µM) 77.2% | viability, T/C (second compound 0.1 µM, first compound 0.00316 µM) 78.2% | viability, T/C (second compound 0.1 µM, first compound 0.01 µM) 70.8% | viability, T/C [7] 70% | viability, T/C [8] 55.6% | viability, T/C (second compound 0.316 µM, first compound 0.000316 µM) 61.4% | viability, T/C (second compound 0.316 µM, first compound 0.001 µM) 68.6% | viability, T/C (second compound 0.316 µM, first compound 0.00316 µM) 61.4% | viability, T/C (second compound 0.316 µM, first compound 0.01 µM) 57.9% | viability, T/C [9] 66.9% | viability, T/C [10] 53.4% | viability, T/C (second compound 1 µM, first compound 0.000316 µM) 59% | viability, T/C (second compound 1 µM, first compound 0.001 µM) 58% | viability, T/C (second compound 1 µM, first compound 0.00316 µM) 58.7% | viability, T/C (second compound 1 µM, first compound 0.01 µM) 58.4% | viability, T/C [11] 62.9% | viability, T/C [12] 55.7%
> 100 nM: IC50 (second compound 0.00316 µM) | IC50 (second compound 0.01 µM) | IC50 (second compound 0.0316 µM) | IC50 (second compound 0.1 µM) | IC50 (second compound 0.316 µM) | IC50 (second compound 1 µM)

CNC(=O)c1ccc(N2C(=S)N(c3ccc(C#N)c(C(F)(F)F)c3)C(=O)C2(C)C)cc1F + COc1c(OCCCN2CCOCC2)ccc2c3n(c(=NC(=O)c4cnc(N)nc4)nc12)CCN3
inactive: viability, T/C [1] 77.2% | viability, T/C [2] 74% | viability, T/C (second compound 0.00316 µM, first compound 0.316 µM) 76.4% | viability, T/C (second compound 0.00316 µM, first compound 1 µM) 91.7% | viability, T/C (second compound 0.00316 µM, first compound 3.16 µM) 89.6% | viability, T/C (second compound 0.00316 µM, first compound 10 µM) 110% | viability, T/C [3] 110% | viability, T/C [4] 103% | viability, T/C (second compound 0.01 µM, first compound 0.316 µM) 99.3% | viability, T/C (second compound 0.01 µM, first compound 1 µM) 94% | viability, T/C (second compound 0.01 µM, first compound 3.16 µM) 96.9% | viability, T/C (second compound 0.01 µM, first compound 10 µM) 99% | viability, T/C [5] 90.4% | viability, T/C [6] 81.7% | viability, T/C (second compound 0.0316 µM, first compound 0.316 µM) 96.6% | viability, T/C (second compound 0.0316 µM, first compound 1 µM) 96.5% | viability, T/C (second compound 0.0316 µM, first compound 3.16 µM) 78.4% | viability, T/C (second compound 0.0316 µM, first compound 10 µM) 89.7% | viability, T/C [7] 95.6% | viability, T/C [8] 71.8% | viability, T/C (second compound 0.1 µM, first compound 0.316 µM) 73.4% | viability, T/C (second compound 0.1 µM, first compound 1 µM) 84% | viability, T/C (second compound 0.1 µM, first compound 3.16 µM) 79.9% | viability, T/C (second compound 0.1 µM, first compound 10 µM) 70.9% | viability, T/C [9] 62.2% | viability, T/C [10] 66.3% | viability, T/C (second compound 0.316 µM, first compound 0.316 µM) 65% | viability, T/C (second compound 0.316 µM, first compound 1 µM) 61.5% | viability, T/C (second compound 0.316 µM, first compound 3.16 µM) 65.4% | viability, T/C (second compound 0.316 µM, first compound 10 µM) 65.3% | viability, T/C [11] 65% | viability, T/C [12] 61.6% | viability, T/C (second compound 1 µM, first compound 0.316 µM) 57.2% | viability, T/C (second compound 1 µM, first compound 1 µM) 62.5% | viability, T/C (second compound 1 µM, first compound 3.16 µM) 63% | viability, T/C (second compound 1 µM, first compound 10 µM) 57.3%
> 10000 nM: IC50 (second compound 0.00316 µM) | IC50 (second compound 0.01 µM) | IC50 (second compound 0.0316 µM) | IC50 (second compound 0.1 µM) | IC50 (second compound 0.316 µM) | IC50 (second compound 1 µM)

Cn1cnc2c(F)c(Nc3ccc(Br)cc3Cl)c(C(=O)NOCCO)cc21 + COc1c(OCCCN2CCOCC2)ccc2c3n(c(=NC(=O)c4cnc(N)nc4)nc12)CCN3
> 3000 nM: IC50 (second compound 0.00316 µM) | IC50 (second compound 0.01 µM)
inactive: viability, T/C (second compound 0.00316 µM, first compound 0.00949 µM) 86% | viability, T/C (second compound 0.00316 µM, first compound 0.03 µM) 74.6% | viability, T/C (second compound 0.00316 µM, first compound 0.0949 µM) 64.4% | viability, T/C (second compound 0.00316 µM, first compound 0.3 µM) 68.7% | viability, T/C (second compound 0.00316 µM, first compound 0.949 µM) 72.8% | viability, T/C (second compound 0.00316 µM, first compound 3 µM) 63.1% | viability, T/C (second compound 0.01 µM, first compound 0.00949 µM) 79.3% | viability, T/C (second compound 0.01 µM, first compound 0.03 µM) 75.7% | viability, T/C (second compound 0.01 µM, first compound 0.0949 µM) 66.5% | viability, T/C (second compound 0.01 µM, first compound 0.3 µM) 62.6% | viability, T/C (second compound 0.01 µM, first compound 0.949 µM) 62.8% | viability, T/C (second compound 0.01 µM, first compound 3 µM) 51.4% | viability, T/C (second compound 0.0316 µM, first compound 0.00949 µM) 70.8% | viability, T/C (second compound 0.0316 µM, first compound 0.03 µM) 59.2% | viability, T/C (second compound 0.0316 µM, first compound 0.0949 µM) 53% | viability, T/C (second compound 0.0316 µM, first compound 0.3 µM) 51.5% | viability, T/C (second compound 0.0316 µM, first compound 0.949 µM) 42.4% | viability, T/C (second compound 0.0316 µM, first compound 3 µM) 28.5% | viability, T/C (second compound 0.1 µM, first compound 0.00949 µM) 60% | viability, T/C (second compound 0.1 µM, first compound 0.03 µM) 54.6% | viability, T/C (second compound 0.1 µM, first compound 0.0949 µM) 36% | viability, T/C (second compound 0.1 µM, first compound 0.3 µM) 37.4% | viability, T/C (second compound 0.1 µM, first compound 0.949 µM) 31.4% | viability, T/C (second compound 0.1 µM, first compound 3 µM) 15.3% | viability, T/C (second compound 0.316 µM, first compound 0.00949 µM) 50.7% | viability, T/C (second compound 0.316 µM, first compound 0.03 µM) 38.9% | viability, T/C (second compound 0.316 µM, first compound 0.0949 µM) 39.9% | viability, T/C (second compound 0.316 µM, first compound 0.3 µM) 28.3% | viability, T/C (second compound 0.316 µM, first compound 0.949 µM) 18.9% | viability, T/C (second compound 1 µM, first compound 0.00949 µM) 49.1% | viability, T/C (second compound 1 µM, first compound 0.03 µM) 39.7% | viability, T/C (second compound 1 µM, first compound 0.0949 µM) 33.5% | viability, T/C (second compound 1 µM, first compound 0.3 µM) 26.4% | viability, T/C (second compound 1 µM, first compound 0.949 µM) 11.1%
38 nM: IC50 (second compound 0.1 µM)
active: viability, T/C (second compound 0.316 µM, first compound 3 µM) 2.2% | viability, T/C (second compound 1 µM, first compound 3 µM) 1.13%
< 9.49 nM: IC50 (second compound 0.316 µM) | IC50 (second compound 1 µM)
243 nM: IC50 (second compound 0.0316 µM)

— PubChem BioAssay AID1963975 (Molecular Pharmacology Branch, DTP, NCI, 2024)
